The text below walks through data of patent US8017646B2, “Histamine H3-receptor ligands and their therapeutic application” (Bioprojet, priority 2005, dated 2011).

Where a name gives a salt, the structure may show the parent alone. Read-outs that look alike come from different tables or passages of the source. A value given as a limit tells only on which side of the number the result lay.

The target of one data set is CYP3A4 (Homo sapiens, UniProt P08684). The data set is described as follows: Cytochrome inhibition, fluorometric assay, CYP3A4. As to conditions: human recombinant CYP3A4, substrate BFC; read-out: cytochrome inhibition (IC50, concentrations for 50% inhibition) CYP3A4. Format: biochemical. As to the method:
(§1) The ability of drug in human to inhibit the catalytic activity of cytochrome P-450 isoforms was assayed using microtiter plate-based, fluorometric assays for the activities of the five human major CYP forms. Inhibition potential was determined in vitro after incubation of fluorescent model substrates over various incubation time with human recombinant cytochrome isoforms in the absence or in presence of increasing concentrations of test molecules (from 1 nM to 100 μM), in comparison with specific CYP isoform inhibitors. Data were expressed as quantitative inhibition parameters [inhibitor concentration that produces 50% inhibition (IC50 value)]. Incubation of drug was carried out at 37° C.±0.5° C. under agitation in the presence of human recombinant cytochrome P-450 isoforms and a NADPH generating system. The incubation conditions for each cytochrome isoform were as follow: [table]

The target in the next data set is CYP2D6 (Homo sapiens, UniProt P10635). As to the kind of experiment: Cytochrome inhibition, fluorometric assay, CYP2D6. The data set is classed as biochemical. As to the method:
as §1, with “value)].” for “value)]. Incubation of drug was carried out at 37° C.±0.5° C. under agitation in the presence of human recombinant cytochrome P-450 isoforms and a NADPH generating system. The incubation conditions for each cytochrome isoform were as follow: [table]”
Incubation of drug was carried out at 37° C.±0.5° C. under agitation in the presence of human recombinant cytochrome P-450 isoforms and a NADPH generating system. The incubation conditions for each cytochrome isoform were as follow: […]

For data set [1], the target named is human histamine H3 receptors (Homo sapiens, UniProt Q9Y5N1). As to the kind of experiment: H3 binding ([125I]iodoproxyfan displacement). The following applies: for Ki: membranes expressing human histamine H3 receptors, [125I]iodoproxyfan. As to the method: Membranes expressing human histamine H3 receptors were incubated 1 hour at room temperature in binding buffer containing 50 mM Na2HPO4/KH2PO4 pH 7.5 in a final volume of 200 μl. […] Amersham Pharmacia Biotech) concentrations ranged between 20 and 40 pM. Non-specific binding was determined in the presence of 1 μM Imetit. The reaction was stopped by rapid filtration through GF/B filters (pre-soaked for 2 hours with 0.3% polyethyleneimine) followed by 3 ice cold binding buffer washes. The filter-bound radioactivity was measured in a liquid scintillation counter with 50 μl of scintillation fluid.

[2] abbreviates: human recombinant CYP2D6, substrate AMMC, read-out: cytochrome inhibition (IC50, concentrations for 50% inhibition) CYP2D6.

By melting point is commonly meant the temperature, or range, at which the solid turns liquid. Broadly, the Ki is a measure of affinity in units of concentration, obtained from inhibition or displacement. Higher therefore signals weaker binding. Broadly, the Kd is a measure of binding affinity in units of concentration.

Sequence of CYP2D6 (P10635 whole entry, canonical isoform): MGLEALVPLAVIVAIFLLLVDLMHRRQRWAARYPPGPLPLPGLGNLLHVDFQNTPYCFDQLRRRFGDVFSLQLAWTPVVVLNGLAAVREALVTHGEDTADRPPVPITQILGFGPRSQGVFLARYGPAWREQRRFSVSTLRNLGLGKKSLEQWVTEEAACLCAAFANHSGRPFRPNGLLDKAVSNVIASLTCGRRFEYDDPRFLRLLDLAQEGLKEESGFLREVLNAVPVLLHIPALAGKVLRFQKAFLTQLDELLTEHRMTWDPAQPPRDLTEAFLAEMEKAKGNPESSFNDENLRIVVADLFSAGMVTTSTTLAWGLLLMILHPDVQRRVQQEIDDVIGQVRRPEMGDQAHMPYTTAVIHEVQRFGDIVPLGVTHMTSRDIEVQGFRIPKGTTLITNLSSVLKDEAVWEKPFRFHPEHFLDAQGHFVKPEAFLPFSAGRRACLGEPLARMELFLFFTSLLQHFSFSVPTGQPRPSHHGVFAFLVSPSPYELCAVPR
Sequence of human histamine H3 receptors (Q9Y5N1 whole entry): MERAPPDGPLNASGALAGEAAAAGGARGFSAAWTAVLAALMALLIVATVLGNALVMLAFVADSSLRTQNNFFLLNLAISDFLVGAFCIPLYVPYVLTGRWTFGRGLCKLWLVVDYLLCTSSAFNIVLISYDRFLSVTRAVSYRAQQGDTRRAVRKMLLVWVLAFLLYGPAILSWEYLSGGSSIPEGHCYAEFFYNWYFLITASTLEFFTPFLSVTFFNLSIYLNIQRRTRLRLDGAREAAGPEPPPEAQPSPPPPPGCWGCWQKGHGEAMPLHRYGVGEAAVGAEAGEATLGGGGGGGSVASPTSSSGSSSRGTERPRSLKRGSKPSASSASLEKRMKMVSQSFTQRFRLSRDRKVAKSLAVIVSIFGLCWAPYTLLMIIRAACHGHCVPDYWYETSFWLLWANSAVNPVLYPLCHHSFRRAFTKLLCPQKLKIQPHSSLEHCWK
Sequence of CYP3A4 (P08684 whole entry, canonical isoform): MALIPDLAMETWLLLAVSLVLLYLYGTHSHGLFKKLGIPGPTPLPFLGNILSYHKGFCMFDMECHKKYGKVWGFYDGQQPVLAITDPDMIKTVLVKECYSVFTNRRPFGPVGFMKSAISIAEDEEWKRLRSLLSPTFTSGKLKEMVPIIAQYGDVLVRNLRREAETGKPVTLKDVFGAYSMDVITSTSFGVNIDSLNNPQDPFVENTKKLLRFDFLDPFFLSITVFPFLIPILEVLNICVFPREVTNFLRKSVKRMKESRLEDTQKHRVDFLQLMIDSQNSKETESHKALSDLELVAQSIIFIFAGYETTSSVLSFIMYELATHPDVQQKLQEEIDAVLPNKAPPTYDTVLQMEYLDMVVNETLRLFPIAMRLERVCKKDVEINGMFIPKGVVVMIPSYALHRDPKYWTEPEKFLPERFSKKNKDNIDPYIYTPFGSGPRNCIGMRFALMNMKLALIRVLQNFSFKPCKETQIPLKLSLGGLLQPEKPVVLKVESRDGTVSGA

For `c1ccc2cc(CCCOCCCN3CCCCC3)ccc2c1` [Example 5, 1-{3-[3-(2-naphtyl)propoxy]propyl}piperidine, oxalate], the results for the IC50 at CYP3A4 and on CYP2D6 (setting [2]) were greater than 10 µM and greater than 1 µM, respectively.

As for `COc1ccc(CCCOCCCN2CCCCC2)cc1OC` [Example 3, 1-{3-[3-(3,4-dimethoxyphenyl)propoxy]propyl}piperidine, oxalate], the IC50 at CYP3A4 and at CYP2D6 (setting [2]) was greater than 10 µM throughout.

Regarding `C(=C\c1ccc2occc2c1)/COCCCN1CCCC1` [Example 12, trans-1-{3-[3-(benzofuran-5-yl)allyloxy]propyl}pyrrolidine, oxalate], the IC50 at CYP3A4 is greater than 10 µM; on CYP2D6 (setting [2]), greater than 1 µM.

For the molecule `Cc1cc(CCCOCCCN2CCCC2)ccc1F` [Example 10, 1-{3-[3-(4-fluoro-3-methylphenyl)propoxy]propyl}pyrrolidine, oxalate], the results for the IC50 at CYP3A4 and at CYP2D6 (setting [2]) were greater than 10 µM and greater than 1 µM, respectively.

As for `C(=C\c1ccc2c(c1)OCCO2)/COCCCN1CCCCC1.O=C(O)C(=O)O` [Example 13, 1-{3-[3-(2,3-dihydrobenzo[1,4]dioxin-6-yl)allyl]oxy}propyl)piperidine, oxalate], the IC50 on CYP3A4 and on CYP2D6 (setting [2]) was greater than 10 µM throughout.

`C(=C\c1ccc2c(c1)OCCO2)/COCCCN1CCCCC1.O=C(O)C(=O)O` [Example 13]: the melting point turned out to be 120 °C.

Regarding `C(=C\c1ccc2c(c1)OCO2)/COCCCN1CCCC1` [Example 14, trans-1-{3-[3-(benzodioxol-5-yl)allyloxy]propyl}pyrrolidine, oxalate], the IC50 on CYP3A4 is 10.6 µM; at CYP2D6 (setting [2]), 4.4 µM. In data set [1], the affinity, expressed as Ki, was 0.0047 µM.

Take `Cc1ccc(CCCOCCCN2CCCCC2)cc1` [Example 4, 1-{3-[3-(4-methylphenyl)propoxy]propyl}piperidine, oxalate]: the IC50 at CYP3A4 and at CYP2D6 (setting [2]) was greater than 10 µM each time.

For the molecule `COc1cc(/C=C/COCCCN2CCCC2)ccc1F` [Example 8, trans-1-{3-[3-(4-fluoro-3-methoxyphenyl)allyloxy]propyl}pyrrolidine, oxalate], the IC50 is greater than 10 µM on CYP3A4 and greater than 1 µM at CYP2D6 (setting [2]).

`Fc1ccc(CCCOCCCN2CCCC2)cc1.O=C(O)C(=O)O` [Example 7, 1-{3-[3-(4-fluorophenyl)propoxy]propyl}pyrrolidine, oxalate] had a melting point of 106 °C. Also, the IC50 on CYP3A4 is greater than 100 µM. The IC50 on CYP2D6 (setting [2]) came to 81 µM.

Consider `Ic1ccc(COCCCc2cnc[nH]2)cc1` [[^125]iodoproxyfan, reference compound], for which the dissociation constant Kd in data set [1] (radioligand at human H3 receptor membranes, read-out: Kd (hH3 binding)) is 0.078 ± 0.006 nM.

For the molecule `COc1ccc(CCCOCCCN2CCCC2)cc1OC` [Example 1, 1-{3-[3-(3,4-dimethoxyphenyl)propoxy]propyl}pyrrolidine, oxalate], the IC50 on CYP3A4 and on CYP2D6 (setting [2]) was greater than 10 µM in each case.

As to `COc1ccc(/C=C/COCCCN2CCCCC2)cc1OC.O=C(O)C(=O)O` [Example 2, trans-1-{3-[3-(3,4-dimethoxyphenyl)allyloxy]propyl}piperidine, oxalate], the melting point lay in the range of 111 to 112 °C. At CYP3A4, the IC50 was greater than 10 µM. For the same molecule, the IC50 on CYP2D6 (setting [2]) was greater than 10 µM.

As to `COc1cc(CCCOCCCN2CCCC2)ccc1F` [Example 9, 1-{3-[3-(4-fluoro-3-methoxyphenyl)propoxy]propyl}pyrrolidine, oxalate], the IC50 on CYP3A4 and on CYP2D6 (setting [2]) was greater than 100 µM each time. This molecule registered an inhibitory constant (Ki) in data set [1] of 0.0017 µM.

With `Clc1ccc(CCCOCCCN2CCCCC2)cc1` [reference compound], the IC50 at CYP2D6 (comparative compound disclosed in WO 00/06254, read-out: cytochrome inhibition (IC50) CYP2D6) was found to be 0.059 µM.

With `COc1cc(F)ccc1CCCOCCCN1CCCC1` [Example 11, 1-{3-[3-(4-fluoro-2-methoxyphenyl)propoxy]propyl}pyrrolidine, oxalate], the IC50 at CYP3A4 amounted to 23 µM; on CYP2D6 (setting [2]) it was 18 µM. This molecule came in with a Ki in data set [1] of 0.00038 µM.

`COc1cc(CCCOCCCN2CCCCC2)ccc1O` [Example 6, 1-{3-[3-(4-hydroxy-3-methoxyphenyl)propoxy]propyl}piperidine, oxalate]: the IC50 on CYP3A4 was greater than 10 µM; at CYP2D6 (setting [2]), greater than 1 µM.
